This data set deals with reconstituted Human Corneal Epithelium (HCE). Nature of the data set: Preliminary cytotoxicity: modified MTT viability test on reconstituted HCE. Type of data set: cell-based. The conditions noted are these: for MTT: Cellular viability (%): relative to negative control. The method, then:
An initial study on human corneal epithelium (HCE) was conducted to check the cytotoxicity of a selection of tear substitutes in order to further assess their protection against superficial corneal epithelium oxidative stress damages induced by UVA+B light (290-400 nm).
The preliminary cytotoxicity was performed after 4 h acute exposure and after 8 h exposure (repeated twice a day with the final readout the day after; 0.015 J/cm^2) to tear substitutes using 2 assays: MTT test and TUNEL assay.
The preliminary cytotoxicity was tested in vitro for the following tear substitutes: • Composition according to Example I • Visu XL (market reference containing 0.1% Coenzyme Q10, 0.1% cross-linked hyaluronic acid (HA), 0.5% Vitamin E TPGS; pH 6.9) on the HCE model compared to Benzalkonium Chloride (BAK) 0.1% solution (positive control) and saline solution (NaCl 0.9%; negative control).
An EPISKIN reconstituted Human Corneal Epithelium (HCE) of 0.5 cm^2 was used for the evaluation. Epithelial human Immortalized cells (HICEC) were deposed on a polycarbonate filter and cultured at the air-liquid interface for 5 days in a chemically defined medium in order to form a structured epithelium. The inserts containing the tissues at day 5 (thickness: 55 μm; 5.5 cell layers) were shipped at room temperature in a multi-well plate filled with an agarose nutrient solution in which they were embedded.
The HCEs were placed in 6 well plates with 1 mL maintenance medium overnight in incubator CO2 at 37° C. and 90% humidity. The tissues were then used the day after, following acute 4 h exposure and 8 h repeated exposure and overnight protocol. […]
Two exposure protocols were carried on: • acute exposure protocol (4 h): 4 h exposure followed by tissues rinsing • repeated exposure and overnight protocol (8 h+overnight): twice daily exposure, with at least 4 hours between the two treatments and readout after overnight incubation. […]
The Accuracy of the spectro-photometrical measurements are in the range between 0 and 2 OD: <+/−(1%+10 mOD). The Raw data of OD are directly recorded in the Microplate autoreader (TECAN INFINITE M-200) further processed by Software Magellan 6.5.
The mean of blank OD has been subtracted to every single OD value. The viability of each biological replicate has been calculated dividing the respective OD mean for the optical density average of the negative control (NC) Biological Replicates. The viability % mean of tissues treated with the same substance has been calculated. […]
Test substance meets the acceptance criteria if the Standard Deviation value (SD) of the cell viability % (expressed as percentage compared to NC) between the 2 tissue replicates is <18%.

With Benzalkonium Chloride [BAK 0.1%], the “MTT: Cellular viability (%)” value was 9.98% (4 H acute exposure) and 0.95% (8 H+ OVERNIGHT repeated exposure). Also, the “Cytotoxicity by MTT test (in words)” value reads like this: (4 h acute exposure) “severe cytotoxicity”; (8 h followed by overnight incubation, cut-off 60% cell viability) “severe cytotoxicity”.

For the origin of these results see patent publication US20250325497A1, “OPHTHALMIC COMPOSITION COMPRISING RESVERATROL FOR TREATING DRY EYE SYNDROME” (Laboratoires THEA, priority 2022, published 2025).
